A word on the MIC: it is the least concentration at which growth counts as inhibited.

Each structure is given as a SMILES string. “Also recorded” adds a separate entry of the source.

Data on five molecules can be found in paper PMC9330353 (Journal of Fungi, 2022).

Assay [1] relates to strain AD/124567. Kind of assay: Checkerboard assay with fluconazole, strain AD/124567. It is filed as cell-based, Saccharomyces cerevisiae. As for the experimental part: (§1) Culture growth was measured using a microplate reader at 600 nm (Fluostar Optima, BMG Labtech, Offenburg, Germany). Growth inhibition was calculated as described in Section 2.3.
(§2) FICI ≤ 0.5 points to a synergic interaction, whereas 0.5 < FICI < 4.0 and FICI > 4 indicate indifferent and antagonistic interactions, respectively.

Assay [2] concerns S. cerevisiae strain AD/124567 (overexpresses Pdr5p). Kind of assay: Antifungal susceptibility test (microbroth dilution), strain AD/124567. It is filed as cell-based, Saccharomyces cerevisiae. The following applies: tested strains AD/1234567 and AD/124567, up to 100 μM. From the text: (§3) In this study, two S. cerevisiae mutant strains were used. Strain AD/124567 (genotype: MATα, PDR1-3, ura3, his1, Δyor1::hisG, Δsnq2::hisG, Δpdr10::hisG, Δpdr11::hisG, Δycf1::hisG, Δpdr3::hisG) overexpressed Pdr5p, but the genes of all other ABC transporters related to the MDR phenotype (Yor1p, Snq2p, Pdr10p, Pdr11p, and Ycf1p) were deleted. A second strain, AD/1234567, had all MDR related genes deleted, including PDR5 (genotype: MATα, PDR1-3, ura3, his1, Δyor1::hisG, Δsnq2::hisG, Δpdr5::hisG, Δpdr10::hisG, Δpdr11::hisG, Δycf1::hisG, Δpdr3::hisG). Therefore, this strain was highly sensitive to fluconazole. One fluconazole-resistant Candida albicans strain was also used in this study, namely, 95-142. This strain was isolated from the throat of a patient and identified by CHROMagar^TM and PCR. The isolate overexpressed CaCdr1p and CaCdr2p (the most important MDR transporters of C. albicans), and was kindly provided by Dr. Theodore White (University of Missouri, Kansas City, MO, USA).
The antifungal activity of the compounds was evaluated via a microbroth dilution method described by Niimi et al.. […] Culture growth was measured using a microplate reader at 600 nm (Fluostar Optima, BMG Labtech, Offenburg, Germany). […] Growth inhibition was calculated as follows: % Growth inhibition = (Absorbance of growth control − Absorbance of treated sample) × 100/Absorbance of growth control
A general note: In broth dilution the organism is exposed to a series of concentrations in liquid medium.

Assay [3] deals with T1, Pdr5p (Saccharomyces cerevisiae, UniProt P33302).
T1 construct: endogenous in cells; host or cells: S. cerevisiae strain AD/124567 (PDR1-3; other MDR ABC transporter genes deleted)
Kind of assay: Rhodamine 6G accumulation/efflux assay. It counts as cell-based. Particulars: strain AD/124567 in the presence of glucose. As for the experimental part:
Efflux assays were performed as described by Reis de Sá et al. (2017). Briefly, AD/124567 cells in the exponential growth phase were harvested by centrifugation at 5000 rpm at room temperature for 5 min, and then washed twice with phosphate-buffered saline (PBS) (0.43 g of KH2PO4; 7.2 g of NaCl; 1.85 g of Na2HPO4; pH 7.2; 990 mL of distilled water). Cells were then resuspended in 10 mL of PBS and starved for 2 h at 4 °C. Subsequently, 10^7 cells/mL were incubated for 30 min at 30 °C with 15 μM R6G. After incubation, cells were washed twice with PBS and further incubated in the presence of the compounds, DMSO, and FK-506 (a classical inhibitor of ABC transporters) for 60 min at 30 °C. […] The supernatants were transferred to the wells of a 96-well polystyrene plate, and fluorescence was measured with a plate reader (Fluostar Optima, BMG Labtech, Offenburg, Germany) at 485 nm (excitation) and 538 nm (emission). To evaluate R6G efflux, fluorescence emitted by the dye in the extracellular milieu was measured. Thus, the fluorescence was directly related to extracellular R6G concentration, and then to Pdr5p activity. […] R6G efflux was calculated as follows: (2) % efflux = Fluorescence of treated sample × 100/Fluorescence of AD/124567 with glucose […]

The target of assay [4] is T1, Pdr5p. The following applies: at 100 μg/mL; cited from earlier work.
For assay [5], the target named is T1, Pdr5p. Particulars: at 200 μM; cited from earlier work.
For assay [6], the system named is strain AD/124567. Description: Disk diffusion chemosensitization assay. The following applies: strain AD/124567, medium with 150 µg/mL fluconazole, 50 μg compound per disk, 48 h. It counts as cell-based, Saccharomyces cerevisiae. As for the experimental part: To evaluate the ability of the compounds in reversing the MDR phenotype of strain AD/124567, a chemosensitization assay was performed, with slight modifications. Briefly, YPD medium containing 150 µg/mL fluconazole was prepared with 1.5% agarose, and a cell suspension from AD/124567 was incorporated into molten medium (45 °C), reaching a final concentration of 2.4 × 10^6 yeasts/mL. Subsequently, 50 μg of each compound was applied to 6-milimeter Whatman 3MM® blotting paper disks (Sigma-Aldrich®, St. Louis, MO, USA), dried at 30 °C for 30 min, and placed on the solidified medium surface. The plates were incubated at 30 °C for 48 h, photographed, and the inhibition zones were measured. A fluconazole-free medium was also used to evaluate the effects of the compounds alone on yeast growth.

In assay [7] the test system is fluconazole-resistant Candida albicans strain 95-142. Description: Checkerboard assay with fluconazole, strain 95-142. Particulars: read-out: Fluconazole MIC a (alone). It counts as cell-based.
Excerpt: as §3, §1, §2

T1 sequence (P33302 whole entry): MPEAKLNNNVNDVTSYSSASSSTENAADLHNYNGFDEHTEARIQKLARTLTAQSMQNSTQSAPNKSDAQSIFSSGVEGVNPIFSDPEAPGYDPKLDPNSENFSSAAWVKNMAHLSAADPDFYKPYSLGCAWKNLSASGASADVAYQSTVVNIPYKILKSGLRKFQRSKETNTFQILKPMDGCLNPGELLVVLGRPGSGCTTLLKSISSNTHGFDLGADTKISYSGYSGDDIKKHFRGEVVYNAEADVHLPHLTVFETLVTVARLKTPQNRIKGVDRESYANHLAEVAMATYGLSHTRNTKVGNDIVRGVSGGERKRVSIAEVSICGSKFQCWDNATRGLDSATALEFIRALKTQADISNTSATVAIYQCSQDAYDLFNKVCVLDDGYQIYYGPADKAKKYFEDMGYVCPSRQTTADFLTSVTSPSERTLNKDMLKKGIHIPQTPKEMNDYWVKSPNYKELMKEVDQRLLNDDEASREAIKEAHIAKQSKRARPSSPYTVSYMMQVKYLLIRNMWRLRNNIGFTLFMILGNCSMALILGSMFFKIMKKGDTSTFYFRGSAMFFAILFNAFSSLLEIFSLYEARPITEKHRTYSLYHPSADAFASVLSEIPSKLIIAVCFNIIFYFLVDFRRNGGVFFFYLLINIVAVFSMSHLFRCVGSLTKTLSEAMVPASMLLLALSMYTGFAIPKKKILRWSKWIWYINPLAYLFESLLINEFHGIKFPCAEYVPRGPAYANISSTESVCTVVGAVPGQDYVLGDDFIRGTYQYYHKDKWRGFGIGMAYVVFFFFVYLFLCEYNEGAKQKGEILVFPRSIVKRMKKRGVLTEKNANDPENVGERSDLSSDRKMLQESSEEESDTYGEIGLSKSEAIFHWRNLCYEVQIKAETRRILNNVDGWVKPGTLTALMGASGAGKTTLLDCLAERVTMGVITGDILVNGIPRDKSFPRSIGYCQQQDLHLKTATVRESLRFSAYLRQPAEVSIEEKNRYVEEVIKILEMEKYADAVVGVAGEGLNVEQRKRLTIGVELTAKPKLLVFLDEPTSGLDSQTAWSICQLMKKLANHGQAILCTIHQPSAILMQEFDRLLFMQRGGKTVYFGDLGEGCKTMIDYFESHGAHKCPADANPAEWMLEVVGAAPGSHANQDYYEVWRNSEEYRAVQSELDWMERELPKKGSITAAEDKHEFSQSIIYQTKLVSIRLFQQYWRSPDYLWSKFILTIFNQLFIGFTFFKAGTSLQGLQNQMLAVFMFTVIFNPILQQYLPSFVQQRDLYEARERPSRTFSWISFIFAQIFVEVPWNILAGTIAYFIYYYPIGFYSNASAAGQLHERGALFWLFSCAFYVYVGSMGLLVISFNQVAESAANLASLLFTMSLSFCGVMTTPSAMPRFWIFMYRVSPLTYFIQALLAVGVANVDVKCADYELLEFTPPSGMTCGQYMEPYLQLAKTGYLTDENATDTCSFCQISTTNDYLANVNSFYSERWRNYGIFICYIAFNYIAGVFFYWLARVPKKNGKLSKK

As to `C[C@H]1O[C@@H](O[C@H]2[C@@H](O)C[C@H](O[C@H]3[C@@H](O)C[C@H](O[C@H]4CC[C@@]5(C)[C@H](CC[C@@H]6[C@@H]5C[C@@H](O)[C@]5(C)[C@@H](C7=CC(=O)OC7)CC[C@]65O)C4)O[C@@H]3C)O[C@@H]2C)C[C@H](O)[C@@H]1O` [digoxin, Digoxin], the “Interaction with fluconazole (qualitative)” value in assay [1] (S. cerevisiae, agar diffusion assay and checkerboard titration) was “indifferent to interaction with fluconazole”. Further, the “Antifungal activity of the compound alone” value in assay [2] is given as “neither presented antifungal activity”. Moreover, in assay [3], the “Effect on R6G efflux / Pdr5p activity (qualitative)” value was “unable to inhibit Pdr5p activity; also recorded: did not affect Pdr5p activity”.
As to `CC1(C)CCC2=C(O1)c1ccccc1C(=O)C2=O` [Beta-lapachone], the “Inhibition of Pdr5p activity” value in assay [4] is 79.4%.
In the case of `Nc1ncc(/C=C/CNC(=O)c2cc(Br)c(Br)[nH]2)[nH]1` [Oroidin], the “Inhibition of R6G efflux” value in assay [5] was 60%.
For `C=CC[C@@H]1/C=C(\C)C[C@H](C)C[C@H](OC)[C@H]2O[C@@](O)(C(=O)C(=O)N3CCCC[C@H]3C(=O)O[C@H](/C(C)=C/[C@@H]3CC[C@@H](O)[C@H](OC)C3)[C@H](C)[C@@H](O)CC1=O)[C@H](C)C[C@@H]2OC` [FK-506], in assay [6], the Inhibition zone amounted to 18 mm.
For `OC(Cn1cncn1)(Cn1cncn1)c1ccc(F)cc1F` [Fluconazole], the MIC was 480 µg/mL in assay [1] (Saccharomyces cerevisiae, strain AD/124567, 80% growth inhibition, read-out: Fluconazole MIC a (alone)) and 62.5 µg/mL in assay [7].
